The numbers were not newly measured in patent US20220062352A1, “COMPOSITIONS FOR THE TREATMENT OF CONDITIONS” (Demata Therapeutics, LLC, priority 2018, published 2022), which cites them from elsewhere.

For the series, the system named is acne vulgaris subjects.

With `CC(=O)N[C@H]1C(O)O[C@H](CO)[C@@H](O)[C@@H]1O` (stereo partly drawn) [NAG, N-acetyl-D-glucosamine], for the setting “acne vulgaris subjects”, the “tolerability versus 10% benzoyl peroxide” value was “better tolerated by the subjects than 10% benzoyl peroxide”. The “number of acne lesions” value (over an 8-week period) is given as “quickly reduced the number of acne lesions”.
